In patent US20250313555A1, “2-SUBSTITUTED THIAZOLE AND BENZOTHIAZOLE COMPOSITIONS AND METHODS AS DUX4 INHIBITORS” (ALTAY THERAPEUTICS, INC., priority 2022, published 2025):

Molecular target: T1, DUX4 (Homo sapiens, UniProt Q9UBX2)
T1 construct: expressed in transfected cells; host or cells: HEK293
Experiment: DUX4 EC50 luciferase reporter protocol in transfected HEK293 cells
Type: cell-based
Details: 6 hr
From the text: EC50 Protocol This example provides a representative protocol for a single well of a 96-well plate. It can be scaled up as necessary for treatment of multiple wells. For negative controls, a well containing reporter DNA, Renilla DNA, and turbofect (without expression vector) were used. For positive controls, wells containing cells that were not treated with any inhibitor were used. They were transfected with the complete DNA lipid complex as set forth below. The DNA-lipid complex for one well of the 96-well plate is prepared by adding to a tube 100 ng of the transfection factor (TF) expression vector, 100 ng of TF reporter DNA, 10 ng of Renilla reporter DNA, […] Turbofect transfection reagent, and […] of the medium without any serum or penicillin/streptomycin. The combination was mixed by gentle flicking of the tube, and the mixture was pipetted into a well of a 96-well plate. The plate was then gently tapped to spread the combination evenly on the bottom of the well. The well was incubated for 30 min. HEK293 cells were grown until 80% confluent in DMEM supplemented with 10% fetal bovine serum, 1% penicillin streptomycin, and 1% amphotericin B. The adherent cells growing on a 10 cm plate were trypsinized with 1 mL of prewarmed trypsin. Once the cells detached from the plate, 10 mL of medium was added, and the cells were strained through a […] cell strainer. The cells were counted using a mixture of 10 mL cell suspension with 10 mL of trypan blue. Once the total number of cells are counted, a dilution of 150 k/mL was prepared. After incubation of the transfection complex was complete, […] of HEK293s (23.25 k total cells) were gently dispensed on top of the wells containing the 25 mL transfection complex, producing a total volume of about 180 mL. The mixture was then incubated for 24 h. To treat cells with each inhibitor, the inhibitors were prepared in the same growth medium. In a deep well block, the regular medium with serum was added to well 1 (135 mL) and to wells 2 through 10 (100 mL). To the first well was added 15 mL of 10 nM inhibitor. The final concentration of the drug in well 1 was 1 nM. The wells were pipeted up and down, and 50 mL was transferred from well 1 to well 2 (1/3 dilution). The well was mixed, and the seriation dilution was repeated with the remaining wells. Once the serial dilution was complete, using a multichannel pipet, 20 mL of each inhibitor were transferred to designated wells in a 96-well plate. […] Before the assay, a sufficient amount of 1× passive lysis buffer was prepared. The luciferase substrate buffer (Promega) was thawed completely and then mixed with the lyophilized luciferase substrate. The stop buffer (Promega) was also completely thawed. (1) Cell lysis: After treatment of the cells was complete, all the cell media is removed by flipping the 96-well plate over and tapping it dry on a dry paper towel. Immediately afterwards, the 1× passive lysis buffer (25 μL) was added. The plates were then placed on a rocker for 15 minutes at medium speed. (2)Measuring luciferase signal: The luciferase substrate solution for all wells was placed in a solution basin. The luciferase substrate solution was then added to every well (100 μL/well) using a multichannel pipette. The total luminescence was then read immediately using a plate reader. (3)Measuring Renilla signal: The “complete stop solution” was prepared in a solution basin by mixing the buffer with the 50× stop solution substrate (Promega) to make the final 1× solution. The complete stop solution was added to each well (50 μL/well) using a multichannel pipette. The total luminescence was then read immediately using a plate reader. Using a spreadsheet (e.g., Excel), the luciferase signal was divided by the renilla signal to get a relative luciferase unit.

T1 sequence (Q9UBX2 whole entry): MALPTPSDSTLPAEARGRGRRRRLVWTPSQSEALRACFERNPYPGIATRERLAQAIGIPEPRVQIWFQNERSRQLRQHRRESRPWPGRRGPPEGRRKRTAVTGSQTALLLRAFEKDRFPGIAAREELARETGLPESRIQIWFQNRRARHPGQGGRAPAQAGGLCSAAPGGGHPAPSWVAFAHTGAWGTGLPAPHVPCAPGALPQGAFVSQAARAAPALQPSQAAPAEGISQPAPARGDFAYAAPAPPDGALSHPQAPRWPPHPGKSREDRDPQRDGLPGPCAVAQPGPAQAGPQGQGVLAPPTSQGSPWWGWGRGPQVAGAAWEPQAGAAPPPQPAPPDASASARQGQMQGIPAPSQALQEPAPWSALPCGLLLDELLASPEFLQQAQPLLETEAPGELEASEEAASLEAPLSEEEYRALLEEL

Compound | EC50
O=C(CCCN1CCCC1=O)NCCCc1nc2ccccc2s1 [Compound 118] | > 10 µM
O=C(CCN1CCCC1=O)Nc1ccc(Cc2nc3ccccc3s2)cc1 [Compound 8] | > 10 µM
CC(=O)NCCCC(=O)Nc1nc(-c2ccccc2)cs1 [Compound 126] | > 10 µM
O=C(CCCc1cccnc1)N[C@H]1CC[C@H](c2nc3ccccc3s2)CC1 [Compound 164] | > 10 µM
CC(=O)NCCCC(=O)Nc1cc(C)cc(-c2nc3ccccc3s2)c1 [Compound 72] | > 10 µM
O=C(CCCN1C(=O)CCC1=O)Nc1nc2ccccc2s1 [Compound 108] | > 10 µM
O=C(CCCN1CCCC1=O)NC1CCCC1c1nc2ccccc2s1 (centres unmarked) [Compound 117] | > 10 µM
O=C(Cc1ccc(-c2nc3ccccc3s2)cc1)NCCN1CCCC1=O [Compound 119] | > 10 µM
CC(=O)NCCCC(=O)N[C@H]1C[C@H](c2nc3ccccc3s2)C1 [Compound 112] | > 10 µM
CC(=O)NCCCNC(=O)C12CCC(c3nc4ccccc4s3)(CC1)CC2 [Compound 173] | > 10 µM
O=C(NCCN1C(=O)CCC1=O)c1ccc(-c2nc3ccccc3s2)cc1 [Compound 22] | > 10 µM
CC(=O)NCCCC(=O)Nc1nc2ccccc2s1 [Compound 107] | > 10 µM
CC(=O)NC1CCC(C(=O)N[C@H]2CC[C@H](c3nc4ccccc4s3)CC2)C1 (some centres unmarked) [Compound 134] | > 10 µM
CN(C(=O)CCC1CCC(=O)N1)c1ccc(-c2nc3ccccc3s2)cc1 (centres unmarked) [Compound 177] | > 10 µM
O=C(CCCc1cccnc1)N[C@H]1CC[C@@H](c2nc3ccccc3s2)CC1 [Compound 163] | > 10 µM
CC(=O)NCCCC(=O)N[C@H]1CC[C@H](Cc2nc3ccccc3s2)CC1 [Compound 172] | > 10 µM
O=C(CCCN1C(=O)CCC1=O)N[C@@H]1CC[C@@H](c2nc3ccccc3s2)C1 [Compound 162] | > 10 µM
CC(=O)NCCCC(=O)NC1CCC(c2nc3ccccc3s2)CC1 (centres unmarked) [Compound 28] | > 10 µM

Compound | EC50
CC(=O)NCCCC(=O)Nc1cc(Cl)cc(-c2nc3ccccc3s2)c1 [Compound 101] | > 10 µM
CC(=O)NCCCNC(=O)c1ccc(-c2nc3ccccc3s2)o1 [Compound 149] | > 10 µM
O=C(CCCN1C(=O)CCC1=O)NC1CCC(c2nc3ccccc3s2)C1 (centres unmarked) [Compound 90] | > 10 µM
CC(C)(NC(=O)CCCN1CCCC1=O)c1ccc(-c2nc3ccccc3s2)cc1 [Compound 110] | > 10 µM
O=C(CCCc1cccnc1)NC1CCC(c2nc3ccccc3s2)C1 (centres unmarked) [Compound 157] | > 10 µM
O=C(CCC1CCC(=O)N1)Nc1ccc(-c2nc3ccccc3s2)o1 (centres unmarked) [Compound 179] | > 10 µM
O=C(NCCCN1C(=O)CCC1=O)c1ccc(-c2nc3ccccc3s2)cc1 [Compound 7] | > 10 µM
CC(=O)NCCCC(=O)N[C@@H]1CC[C@H](c2nc3ccccc3s2)C1 [Compound 114] | > 10 µM
O=C(CCCCN1C(=O)CCC1=O)N[C@H]1CC[C@@H](c2nc3ccccc3s2)CC1 [Compound 151] | > 10 µM
CC(=O)NCCCC(=O)NCCCc1nc2ccccc2s1 [Compound 106] | > 10 µM
CC(=O)CCCCC(=O)Nc1ccc(-c2nccs2)cc1 [Compound 23] | > 10 µM
CC(=O)NCCCc1nc(CCCC(=O)Nc2ccc(-c3nc4cc(F)ccc4s3)cc2)co1 [Compound 138] | > 10 µM
CC(=O)NCCCC(=O)Nc1cc(Cl)cc(-c2nc3cc(F)ccc3s2)c1 [Compound 102] | > 10 µM
CC(=O)NC1CCC(C(=O)Nc2nc3ccccc3s2)C1 (centres unmarked) [Compound 131] | > 10 µM
CN(C(=O)CCCN1C(=O)CCC1=O)c1ccc(Cc2nc3ccccc3s2)cc1 [Compound 169] | > 10 µM
CC(=O)NCCCC(=O)Nc1ccc(-c2nccs2)cc1 [Compound 70] | > 10 µM
O=C(NCCc1cncnc1)c1ccc(-c2nc3ccccc3s2)cc1 [Compound 11] | > 10 µM

The remaining lines, values ahead:

EC50 | Compound
> 10 µM | O=C(CCCN1C(=O)CCC1=O)N[C@H]1C[C@@H](c2nc3ccccc3s2)C1 [Compound 97]
> 10 µM | O=C(CCCN1C(=O)CCC1=O)NC1CCCC1c1nc2ccccc2s1 (centres unmarked) [Compound 92]
> 10 µM | CC(=O)NCCCC(=O)N[C@H]1CC[C@@H](Cc2nc3ccccc3s2)CC1 [Compound 171]
> 10 µM | O=C(CCC1CCC(=O)N1)Nc1ccc(Cc2nc3ccccc3s2)cc1 (centres unmarked) [Compound 178]
> 10 µM | CC(=O)NCCCC(=O)N[C@H]1C[C@@H](c2nc3ccccc3s2)C1 [Compound 113]
> 10 µM | CN(C(=O)CCCN1C(=O)CCC1=O)c1ccc(-c2nc3cc(F)ccc3s2)cc1 [Compound 144]
> 10 µM | CC(=O)N[C@@H]1CC[C@@H](C(=O)Nc2nc3ccccc3s2)C1 [Compound 185]
> 10 µM | CC(=O)NCCCC(=O)Nc1cccc(-c2nc3ccccc3s2)c1 [Compound 71]
> 10 µM | CC(=O)NCCCC(=O)N[C@H]1CC[C@H](c2nc3ccccc3s2)C1 [Compound 115]
> 10 µM | CC(=O)NCCCNC(=O)c1cc(C#N)cc(-c2nc3cc(F)ccc3s2)c1 [Compound 188]
> 10 µM | O=C(CCCN1C(=O)CCC1=O)N[C@H]1CC[C@H](c2nc3ccccc3s2)C1 [Compound 161]
> 10 µM | CC(=O)N[C@H]1CC[C@@H](C(=O)Nc2nc3ccccc3s2)C1 [Compound 183]
> 10 µM | O=C(CCCc1cnco1)Nc1ccc(Cc2nc3ccccc3s2)cc1 [Compound 66]
> 10 µM | O=C(CCCN1C(=O)CCC1=O)NC1CC(c2nc3ccccc3s2)C1 (centres unmarked) [Compound 89]
> 10 µM | C=C(C)NCCC(=C)Nc1cc(C)cc(Cc2nc3ccccc3s2)c1 [Compound 120]
> 10 µM | O=C(CCCN1C(=O)CCC1=O)NCCCc1nc2ccccc2s1 [Compound 91]
> 10 µM | CC(=O)N[C@@H]1CC[C@H](C(=O)Nc2nc3ccccc3s2)C1 [Compound 182]
> 10 µM | O=C(CCCN1C(=O)CCC1=O)NC1CCC(Cc2nc3ccccc3s2)C1 (centres unmarked) [Compound 158]
